This note sets out measurements from US20240294464A1, “SYNTHESIS OF RESTRAINED COMPLEXING AGENTS” (Genentech, Inc., priority 2021, published 2024).

The data set in a line: stability of compound 1 in prep-HPLC fractions. The class given is physicochemical. The settings on record: prep-HPLC fractions (0.01% TFA aqueous solution / acetonitrile); needs to freeze immediately for lyophilization. From the text:
The crude compound 1 was purified by prep-HPLC (Mobile phase A: 0.01% TFA aqueous solution (v/v); Mobile phase B: Acetonitrile) and the purified product was lyophilized to give compound 1 with 98 A % HPLC purity as a white solid in 51% yield over two steps. (Note: The compound 1 in prep-HPLC fractions is not stable, and it needs to freeze immediately for lyophilization. The residual TFA in solid is 0.1 equiv to E)

As to `O=C(O)CN(CC(=O)O)[C@@H]1CCCC[C@H]1N(CC(=O)O)Cc1ccc(CC(=O)Oc2c(F)c(F)cc(F)c2F)cc1` [compound 1, 2,2′-(((1R,2R)-2-((carboxymethyl)(4-(2-oxo-2-(2,3,5,6-tetrafluorophenoxy)ethyl)benzyl)amino)cyclohexyl)azanediyl)diacetic acid], the “stability in prep-HPLC fractions” value is recorded as “not stable”.
